In brackets after ≈: the same amount, converted by molar mass. Entries after “also recorded” stand apart in the source; their conditions may differ. Where two headings read alike, the source gives them in different places.
How the values were obtained:
[1] = system: gfp, adh8a, adh8b mRNA injected zebrafish embryos; assay: Zebrafish embryo test after microinjection of gfp, adh8a, adh8b or adh8a/b mRNA; format: in vivo, zebrafish (Danio rerio); conditions: for increase in acute toxicity in response to injection of adh8 mRNA: gfp, adh8a, adh8b, adh8a/b mRNA injected embryos
Method: (§1) The zebrafish embryo test was performed with few modifications according to a standard operation procedure and a static exposure setup without renewal of exposure solutions (ISO 15088, 2006). The following chemicals were used: Allyl alcohol (CAS 107-18-6, purity 99.8%, Sigma-Aldrich, Deisenhofen, Germany), acrolein (CAS 107-02-8, purity ≥99.0%, Sigma-Aldrich, Deisenhofen, Germany), 4-Nitrophenol (CAS 100-02-7, PESTANAL, analytical standard, Sigma-Aldrich, Deisenhofen, Germany), and ethanol (CAS 64-17-5, purity ≥ 99.5%, Carl Roth, Germany). Stock solutions were prepared for each experiment by adding the appropriate amount for the highest test concentration to the exposure media (294.0 mg/L CaCl2*2H2O, 123.3 mg/L MgSO4*7H2O, 64.7 mg/L NaHCO3, 5.7 mg/L KCl). The solutions were prepared one day before the experiment in 100 ml closed graduated flasks and were stirred over night for approximately 14 h. Lower concentrations were obtained by serial dilutions. Fertilized eggs (embryos at 4–32 cell stage) were transferred by a pipette to 24-well plates (1 embryo per well, 10 wells per exposure concentration, Cellstar Greiner Bio-One, Frickenhausen, Germany) or crystallization glass dishes (80 mm diameter, 10–20 embryos per vial and 30 ml of exposure medium), respectively. Exposures were performed in independent triplicates on different days for 48 h from 2-50 hpf (hours post fertilization), 24–72 hpf, and 72–120 hpf. For the 24–72 hpf exposure, part of the embryos were manually dechorionated using forceps. […] At either 2, 8, 24 or 72 hpf the medium was completely removed and replaced by exposure media containing different concentrations of allyl alcohol (2 ml per well or 30 ml per crystallization dish, respectively). The Henry's law coefficients of the test chemicals (allyl alcohol: 4.99*10^−6, ethanol: 5.62*10^−6, 4-nitrophenol: 4.15*10^−10, acrolein: 1.22*10^−4; atm*m^3/mol) indicate a weak volatility for ethanol, allyl alcohol and acrolein. Therefore, in order to reduce potential evaporation, 24-well plates were covered with an adhesive foil; crystallization dishes were covered with a household plastic wrap and watch glasses. For comparison of the LC50 at different stages and the effect of dechorionation, exposure was performed in 24-well plates. For gene expression analysis and microinjection experiments crystallization dishes were used for exposure.
(§2) After 48 h of exposure referring to 50, 72 or 120 hpf stages, the number of dead embryos was counted. Dead embryos were detected according to the criteria given in the ISO standard; i.e., either coagulation, missing heartbeat, failure to develop somites or a lack of detachment of the tail-bud from the yolk sac were considered as indicators of lethality.
(§3) Injection needles were pulled from borosilicate glass capillary tubes with filament (GC100F-10; Warner Instruments, LLC, Hamden, CT) using a Narishige micropipette puller (Tokyo, Japan). Embryos were injected with the Eppendorf FemtoJet (Hamburg, Germany) through the chorion into the yolk compartment at the one-cell stage.
(§4) Plasmids with either the cDNA sequence of adh8a or adh8b were purchased from ImaGenes (Berlin, Germany, clone numbers IRBOp991G0334D for adh8a and IRBOp991F02101D for adh8b). The GFP open reading frame was cloned into the pCS2p+ Vector. For synthesis of capped mRNAs, adh8 plasmids were cut with XhoI and pCS2P+GFP was cut with KpnI. 5′ capped mRNA was synthesized with the mMessage Machine SP6 Kit (Life Technologies/Ambion, Darmstadt, Germany) according to the manufacturer's instructions. Injected mRNA concentration was 20–50 ng/µl. Phenol red was added to the RNA samples before injection (0.1% final concentration) in order to allow tracking of successful injections.
(§5) The LC50 values ± asymmetric 95% confidence intervals were calculated using the software JMP (SAS, Cary, NC) using the Hill-slope equation for modeling of concentration-response curves: [drawing 1] […]

[2] = source not given; cited from earlier work
fathead minnow = conditions: cited from earlier work; for LC50: fathead minnow ref 27
zebrafish embryo = conditions: cited from earlier work
[3] = Quantification of internal allyl alcohol concentration in mRNA-injected embryos by HS-GC-MS; format: in vivo, zebrafish (Danio rerio)
Method: 50 injected embryos were exposed from 8 hpf to 26 hpf with 0.5 or 1 mg/L allyl alcohol. At 26 hpf embryos were manually dechorionated using forceps and transferred into fresh 20 ml glass vials. The exposure medium was removed and embryos were rinsed twice with 2 ml ISO water for 30 sec, transferred into GC-MS headspace vials (Agilent Technologies, Böblingen, Germany). After removal of remaining fluid by using a microliter pipette the vials were closed and embryos were frozen at −20°C for 10 min. Subsequently, embryos were homogenized by 5 min sonication in an ultrasonic bath (Sonorex RK 512 H; Bandelin Electronic, 35 kHz). Chemical analyses were performed immediately after sonication using an Agilent 7890A gas chromatograph with headspace sampler G1888 (Agilent Technologies, Böblingen, Germany). The headspace oven temperature for equilibration of samples was set to 48°C for 10 min. The compound separation was performed using a capillary column (60 m×0.25 i.d.) with a nonpolar stationary phase HP1 (thickness 1.00 µm). Ultra high purity helium was used as carrier gas. Mass spectra were derived with Agilent 5975C inert XL MSD and Triple Axis Detector (Agilent Technologies,) in electron impact ionization mode 70eV. The detector conditions were: ion source temperature 230°C and quadrupole temperature 150°C. The column oven temperature program involved an initial temperature of 45°C for 1 min, an increase at 15°C/min to 150°C (held for 2 min), then an increase at 65°C/min to 250°C (held 0.5 min). The mass spectrometer was operated in selected ion monitoring (SIM) mode for calibration and analyte quantification in samples.
For the allyl alcohol calibration the following concentrations were used: 8.5; 42.5; 85; 425; 850 and 1700 µg/L. 5 µl of the respected concentration were transferred into a headspace vial and directly used for HS-GC-MS analysis. The calibration curve was generated based on peak areas. Exposure concentrations were determined for each replicate at the start of the exposure.

zebrafish embryos = assay: Zebrafish embryo test (acute lethality, 48 h static exposure), non-injected embryos; format: in vivo, zebrafish (Danio rerio)
Method: as §1, §2
The LC50 values ± asymmetric 95% confidence intervals were calculated using the software JMP (SAS, Cary, NC) using the Hill-slope equation for modeling of concentration-response curves: [drawing 1]
Min and Max were set to 0 and 100%, respectively. x and y represented the nominal exposure concentration and the survival rate (percentage).

[4] = design: method as in PMID 22835061; conditions: cited from earlier work; for measured concentration as % of nominal concentration: 24-well plates ref 18
[5] = system: adh8a mRNA injected zebrafish embryos; assay: Time-lapse recording of adh8a mRNA injected embryos exposed to allyl alcohol; format: in vivo; conditions: 5 mg/L allyl alcohol, 24-wells
Method: For time lapse recording of zebrafish embryos were performed using a Leica DMI4000 B inverted microscope (Leica, Wetzlar, Germany), equipped with a digital camera (DFC 350FX; Leica) and 5× objective (HCX PL FLUOTAR, 5.0×0.15 DRY). adh8a mRNA injected were exposed to 5mg/L allyl alcohol in 24-well plates (2 embryos per 2 ml). A constant temperature of 26°C was maintained with a heated stage insert. Embryos were imaged by bright filed every 20 min for 20 h. Images were analyzed using LAS AF software (Leica, Wetzlar, Germany). Video was exported using 3 frames per second.

adult zebrafish = system: adult zebrafish; design: method as in PMID 22835061; conditions: adult zebrafish ref 18; cited from earlier work
[6] = Zebrafish embryo test after microinjection of gfp, adh8a, adh8b or adh8a/b mRNA; format: in vivo, zebrafish (Danio rerio); conditions: OBI, zebrafish, in vivo, other: static waterborne exposure in exposure medium, exposure 8-56 h, with chorion, crystallization dish, strain OBI
Method: as §1, §2, §3, §4, §5

[7] = adh8a mRNA injected, exposure 8-56 h, with chorion, crystallization dish, strain OBI
[8] = adh8b mRNA injected, exposure 8-56 h, with chorion, crystallization dish, strain OBI
[9] = gfp mRNA injected, exposure 8-56 h, with chorion, crystallization dish, strain OBI

CCO [ethanol]
LC50 [1, 7]: 18570 µg/mL
LC50 ([1]; adh8a/b mRNA injected, exposure 8-56 h, with chorion, crystallization dish, strain OBI): 17780 µg/mL
LC50 [1, 8]: 16310 µg/mL
LC50 [1, 9]: 19170 µg/mL
increase in acute toxicity in response to injection of adh8 mRNA [1]: did not detect any increase
Henry's law coefficient [2]: 5.62*10^−6 atm*m^3/mol
LC50 (fathead minnow; adult fish): 14700 µg/mL (≈ 319000 µM)

CC=O [acetaldehyde]
fold higher toxicity compared to the parent compound ethanol (zebrafish embryo; zebrafish embryo ref 25): ~720 fold
fold higher toxicity compared to the parent compound ethanol (fathead minnow; adult fish ref 27): about 435 fold

C=CCO [allyl alcohol, Allyl alcohol]
allyl alcohol detection in embryos by GC-MS ([3]; adh8a mRNA injected embryos): no allyl alcohol was found; also recorded: below the limit of detection
internal allyl alcohol concentration ([3]; adh8a mRNA injected, 0.5 mg/L nominal, 8-26 hpf, Repl. 1-3, n.d. = not detectable): 0 pg/embryo
internal allyl alcohol level (below the limit of detection) ([3]; adh8a-injected embryos): < 4.6 µg/L
internal allyl alcohol concentration (range) ([3]; before decline in adh8a-injected embryos): 0.23-58 ng/embryo
fold lower LC50 for exposure from 72-120 hpf compared with earlier stages (zebrafish embryos; 72-120 hpf vs earlier exposure periods): 3 fold
sublethal malformations in exposed embryos (zebrafish embryos; 48 h exposures): No sublethal malformations were observed
LC50 (zebrafish embryos; exposure 2-50 hpf, non-injected, read-out: LC50): 8.2 mM
LC50 (zebrafish embryos; exposure 2-50 hpf, with chorion, no mRNA injected, 24-well plates, strain WIK): 478 µg/mL
LC50 (zebrafish embryos; exposure 8-56 h, with chorion, non-injected control, crystallization dish, strain OBI): 328 µg/mL
LC50 (zebrafish embryos; exposure 24-72 hpf, with chorion (value paired with 451 mg/L), read-out: LC50): 7.7 mM
LC50 (zebrafish embryos; exposure 24-72 hpf, with chorion, no mRNA injected, 24-well plates, strain WIK): 451 µg/mL
LC50 (zebrafish embryos; exposure 24-72 hpf, without chorion (manually removed), no mRNA injected, 24-well plates, strain WIK): 492 µg/mL
LC50 (zebrafish embryos; exposure 24-72 hpf, without chorion (value paired with 492 mg/L), read-out: LC50): 8.5 mM
LC50 (zebrafish embryos; exposure 72-120 hpf, hatched, no mRNA injected, 24-well plates, strain WIK): 157 µg/mL
LC50 (zebrafish embryos; exposure 72-120 hpf, hatched, no mRNA injected, 24-well plates, strain WIK, listed as Allyl alcohol): 159 µg/mL
LC50 (zebrafish embryos; exposure 72-120 hpf, read-out: LC50): 2.7 mM
time to coagulation of the embryos (zebrafish embryos; toxic concentration): ≤ 24 h
fold higher toxic concentrations (lower toxicity) in embryos compared to adult fish (zebrafish embryos; zebrafish embryos vs adult fish): about 1000 fold
measured concentration as % of nominal concentration ([4]; 0 h): about 80%
geometric mean of measured concentrations as % of nominal concentration ([4]; 24-well plates, 48 h ref 18): 47%
measured concentration as % of nominal concentration ([4]; within 48 h of exposure): about 28%
LC50 ([1]; adh8a mRNA injected embryos, read-out: LC50): 0.0134 mM
LC50 [1, 7]: 0.78 µg/mL
LC50 ([1]; adh8a/b mRNA (1:1) injected, exposure 8-56 h, with chorion, crystallization dish, strain OBI): 2.11 µg/mL
LC50 [1, 8]: 166 µg/mL
fold reduction of LC50 by adh8b mRNA injection ([1]; adh8b mRNA injections): 2.5 fold
fold reduction of LC50 by adh8a mRNA injection ([1]; compared to gfp-injected or non-injected embryos): more than 500 fold
LC50 [1, 9]: 436 µg/mL
time to coagulation of the embryos [5]: 3 to 9 h
LC50 (adult fish) (adult zebrafish): 0.28 µg/mL (≈ 4.82 µM)
Henry's law coefficient [2]: 4.99*10^−6 atm*m^3/mol
toxicity level (LC50) in adult fish (fathead minnow; fathead minnow ref 19): 0.32 µg/mL

O=[N+]([O-])c1ccc(O)cc1 [4-Nitrophenol]
LC50 ([6]; adh8a mRNA injected): 9.65 µg/mL (≈ 69.4 µM)
LC50 ([6]; adh8a/b mRNA (1:1) injected): 10.2 µg/mL (≈ 73.4 µM)
LC50 ([6]; adh8b mRNA injected): 9.79 µg/mL (≈ 70.4 µM)
LC50 ([6]; gfp mRNA injected): 9.45 µg/mL (≈ 67.9 µM)
increase in acute toxicity in response to injection of adh8 mRNA [1]: did not detect any increase
Henry's law coefficient [2]: 4.15*10^−10 atm*m^3/mol
LC50 (zebrafish embryo; zebrafish embryo ref unpublished data): 12.0 µg/mL (≈ 86.3 µM)
LC50 (fathead minnow): 44.8 µg/mL (≈ 322 µM)

C=CC=O [acrolein]
acrolein detection in GC/MS chromatograms ([3]; adh8a injected embryos exposed to allyl alcohol): could not detect acrolein
LC50 (zebrafish embryos; exposure 2-50 hpf, with chorion, no mRNA injected, 24-well plates, strain OBI, n = 1): 0.42 µg/mL
fold lower LC50 of acrolein compared with allyl alcohol (zebrafish embryos; zebrafish embryos, 2-50 hpf): ~1000 fold
Henry's law coefficient [2]: 1.22*10^−4 atm*m^3/mol
